Measurements published in ChEMBL document CHEMBL4814078, “Novel CFTR Modulators for Treating Cystic Fibrosis” (ACS Med Chem Lett, 2021).

target: Cystic fibrosis transmembrane conductance regulator (Homo sapiens, UniProt P13569); assay: Potentiation of CFTR in primary human epithelial enteroid cells assessed as chloride transport in presence of forskolin by measuring membrane potential incubated for 18 to 24 hrs by FLIPR Tetra based dye assay; type: tissue-based, Epithelial cell
Sequence (P13569 whole entry): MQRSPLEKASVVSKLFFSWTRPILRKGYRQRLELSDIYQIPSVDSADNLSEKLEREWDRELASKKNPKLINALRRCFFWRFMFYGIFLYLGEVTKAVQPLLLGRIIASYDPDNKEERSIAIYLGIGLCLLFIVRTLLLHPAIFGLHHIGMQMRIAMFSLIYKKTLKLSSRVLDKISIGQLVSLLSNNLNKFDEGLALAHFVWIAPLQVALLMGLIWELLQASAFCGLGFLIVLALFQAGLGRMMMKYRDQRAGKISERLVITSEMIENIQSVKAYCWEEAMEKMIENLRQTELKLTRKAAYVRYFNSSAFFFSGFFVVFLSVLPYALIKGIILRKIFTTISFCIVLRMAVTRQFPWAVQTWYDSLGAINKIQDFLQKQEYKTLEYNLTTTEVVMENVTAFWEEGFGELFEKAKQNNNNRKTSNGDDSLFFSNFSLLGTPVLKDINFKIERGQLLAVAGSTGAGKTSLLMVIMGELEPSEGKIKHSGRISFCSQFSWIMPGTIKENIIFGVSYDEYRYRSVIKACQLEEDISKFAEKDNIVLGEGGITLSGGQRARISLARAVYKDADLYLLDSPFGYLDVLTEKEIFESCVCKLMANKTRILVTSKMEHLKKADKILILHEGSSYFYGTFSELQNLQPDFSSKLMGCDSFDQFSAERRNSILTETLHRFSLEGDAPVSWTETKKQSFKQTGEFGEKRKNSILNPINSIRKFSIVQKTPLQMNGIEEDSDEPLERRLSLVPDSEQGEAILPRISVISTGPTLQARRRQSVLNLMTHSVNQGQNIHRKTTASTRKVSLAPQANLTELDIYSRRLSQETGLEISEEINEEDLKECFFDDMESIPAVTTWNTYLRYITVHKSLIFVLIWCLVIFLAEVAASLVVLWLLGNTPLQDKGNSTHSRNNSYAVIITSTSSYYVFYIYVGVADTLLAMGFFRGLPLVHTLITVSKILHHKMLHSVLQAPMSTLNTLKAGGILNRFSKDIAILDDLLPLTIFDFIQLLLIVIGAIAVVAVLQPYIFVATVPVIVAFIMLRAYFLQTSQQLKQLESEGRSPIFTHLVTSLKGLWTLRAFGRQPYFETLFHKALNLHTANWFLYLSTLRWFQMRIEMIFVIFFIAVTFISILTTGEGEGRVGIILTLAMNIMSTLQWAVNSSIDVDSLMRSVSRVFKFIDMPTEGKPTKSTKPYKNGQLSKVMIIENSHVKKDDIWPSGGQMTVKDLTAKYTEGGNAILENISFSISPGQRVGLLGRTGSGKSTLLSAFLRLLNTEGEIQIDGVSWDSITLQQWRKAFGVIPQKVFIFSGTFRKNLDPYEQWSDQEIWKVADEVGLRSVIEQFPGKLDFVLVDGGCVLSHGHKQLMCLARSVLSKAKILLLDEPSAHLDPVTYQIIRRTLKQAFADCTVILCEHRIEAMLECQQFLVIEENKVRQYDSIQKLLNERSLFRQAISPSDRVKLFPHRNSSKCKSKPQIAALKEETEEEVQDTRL

SMILES	EC50
CC1(C)C[C@@H]2CCCNc3cccc(n3)S(=O)(=O)NC(=O)c3ccc(-n4ccc(OCCC[Si](C)(C)C)n4)nc3N1C2	< 1000 nM
CC1(C)C[C@@H]2CCCNc3cccc(n3)S(=O)(=O)NC(=O)c3ccc(-n4ccc(OC[Si](C)(C)C)n4)nc3N1C2	< 1000 nM
CC1(C)C[C@@H]2CCCNc3cccc(n3)S(=O)(=O)NC(=O)c3ccc(-n4ccc(OCCC5([Si](C)(C)C)CC5)n4)nc3N1C2	< 1000 nM
CC1(C)C[C@@H]2CCCNc3cccc(n3)S(=O)(=O)NC(=O)c3ccc(-n4ccc(OC[Si](C)(C)C5(C(F)(F)F)CC5)n4)nc3N1C2	< 1000 nM
CC1(C)C[C@@H]2CCCNc3cccc(n3)S(=O)(=O)NC(=O)c3ccc(-n4ccc(OCC[Si](C)(C)C)n4)nc3N1C2	< 1000 nM
CC(C)(C)CC[Si](C)(C)c1ccn(-c2ccc3c(n2)N2C[C@@H](CCCNc4cccc(n4)S(=O)(=O)NC3=O)CC2(C)C)n1	< 1000 nM
